# Experimental data taken from article PMC7138817, “The [4Fe-4S] cluster of sulfurtransferase TtuA desulfurizes TtuB during tRNA modification in Thermus thermophilus” (Communications Biology, 2020).
# The star is where a group is joined. thiocarboxylate = C-terminal -COSH in place of -COOH, S*
# T1: holo-TtuA (Thermus thermophilus, UniProt Q72LF3)
# T1 construct: TtuA without TtuB, prepared as in an earlier publication
# T1 sequence (Q72LF3 1-321): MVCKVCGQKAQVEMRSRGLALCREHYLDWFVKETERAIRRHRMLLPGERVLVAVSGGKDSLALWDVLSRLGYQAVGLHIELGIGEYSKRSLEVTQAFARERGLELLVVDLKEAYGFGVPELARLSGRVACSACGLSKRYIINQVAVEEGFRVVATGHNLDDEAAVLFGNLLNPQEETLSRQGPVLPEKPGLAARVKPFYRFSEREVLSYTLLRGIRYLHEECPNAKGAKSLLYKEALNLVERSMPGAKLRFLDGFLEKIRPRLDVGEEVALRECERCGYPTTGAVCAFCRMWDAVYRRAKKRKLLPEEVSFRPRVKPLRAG
# T2: holo-TtuA (purified alone, with [4Fe-4S] cluster) used for EPR with added TtuB-COSH (Thermus thermophilus, UniProt Q72LF3 1-321)
# T2 construct: TtuA, Thermus thermophilus; carries a [4Fe-4S] cluster, reduced with sodium dithionite for EPR; also called DT-reduced TtuA; source: purified
# T2 sequence (looked up): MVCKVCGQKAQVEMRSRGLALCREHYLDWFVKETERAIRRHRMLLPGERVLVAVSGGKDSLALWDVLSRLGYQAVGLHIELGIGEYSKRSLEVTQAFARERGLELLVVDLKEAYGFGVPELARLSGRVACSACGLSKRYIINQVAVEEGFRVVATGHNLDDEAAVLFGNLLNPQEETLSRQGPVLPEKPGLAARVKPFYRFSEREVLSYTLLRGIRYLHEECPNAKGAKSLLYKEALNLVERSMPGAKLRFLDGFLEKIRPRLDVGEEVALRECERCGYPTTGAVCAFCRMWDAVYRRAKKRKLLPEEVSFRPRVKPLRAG
# B1: TtuB-COSH (TtuB with thiocarboxylated C-terminus) (natural protein, Thermus thermophilus, UniProt Q72LF4 1-65, looked up)
# chain: MRVVLRLPERKEVEVKGNRPLREVLEELGLNPETVVAVRGEELLTLEDEVREEDTLEVLSAISGG-thiocarboxylate
# notes: TtuB, ubiquitin-like sulfur donor protein, Thermus thermophilus; also called thiocarboxylated TtuB
# Assays:
# [1] = target: T3, holo-TthTtuA–TthTtuB complex (Thermus thermophilus, UniProt Q72LF3+Q72LF4); assay: X-ray crystal structure, […] Å; format: binding; conditions: reconstituted with ferric chloride and sulfide, anaerobic; bound by three Cys of TtuA, unique Fe coordinated by C-terminal carboxylate of TtuB
# T3 construct: gene ttuA; co-expressed in E. coli B834(DE3) from pETDuet-1; His6-tag plus four residues at N-terminus of TtuB, TtuA untagged; TtuB-COOH form; TtuA-TtuB heterodimers
# holo-TtuA = target: T1, holo-TtuA; assay: EPR spectroscopy, X-band, […] K; format: binding; conditions: dithionite-reduced, anaerobic, no TtuB
# [2] = target: T2, holo-TtuA (purified alone, with …); assay: EPR spectroscopy; purified holo-TtuA mixed with TtuB-COSH (molar ratio 1:3, 0.6 mM:2.0 mM), incubated at 298 K for 5 min, reduced with sodium dithionite, frozen; X-band spectra at 7, 12 and 29 K; compared with TtuA without TtuB-COSH; conditions: both partners purified
Molecule,"X-ray crystal structure, 2.2 Å [1]","EPR spectroscopy, X-band, 12 K (holo-TtuA)",binding result [2]
[S]12[Fe]3[S]4[Fe]1[S]1[Fe]2[S]3[Fe]41 [[4Fe-4S] cluster],unique Fe site of the [4Fe-4S] cluster and the C-terminus of TtuB was observed,TtuA in the absence of TtuB-COSH is the typical rhombic signal of the [4Fe-4S] cluster,–
B1,–,–,binds
